According to ChEMBL document CHEMBL5725267, “Enhancer of zeste homolog 2 inhibitors” (2016):
pIC50: −log10 of the molar value.

Experiment: Scintillation Proximity Assay (SPA): Protocol 2: Compounds contained herein were evaluated for their ability to inhibit the methyltransferase activity of EZH2 within the PRC2 complex. Human PRC2 complex was prepared by co-expressing each of the 5 member proteins (FLAG-EZH2, EED, SUZ12, RbAp48, AEBP2) in Sf9 cells followed by co-purification. Enzyme activity was measured in a scintillation proximity assay (SPA) where a tritiated methyl group is transferred from 3H-SAM to a lysine residue on a biotinylated, unmethylated peptide substrate derived from histone H3. The peptides were captured on streptavidin-coated SPA beads and the resulting signal was read on a ViewLux plate reader.Part A. Compound Preparation 4. Prepare 10 mM stock of compounds from solid in 100% DMSO. 5. Set up an 11-point serial dilution (1:4 dilution, top concentration 10 mM) in 100% DMSO for each test compound in a 384 well plate leaving columns 6 and 18 for DMSO controls. 6. Dispense 10 nL of compound from the dilution plate into reaction plates (Corning, 384-well polystyrene NBS, Cat#3673). Percent inhibition was calculated relative to the DMSO control for each compound concentration and the resulting values were fit using standard IC50 fitting parameters within the ABASE data fitting software package.
Format: biochemical

Row | pIC50 | SMILES
1 | 6.70 | C/C=C(\CCCN1CCC(N(C)C)CC1)c1scc(C(=O)NCc2c(C)cc(C)[nH]c2=O)c1C
2 | 7.00 | C/C=C(/c1scc(C(=O)NCc2c(C)cc(C)[nH]c2=O)c1C)[C@H]1CC[C@H](NC(=O)OC(C)(C)C)CC1
3 | 6.60 | C/C=C(\CCCN1CCN(C)CC1)c1scc(C(=O)NCc2c(C)cc(C)[nH]c2=O)c1C
4 | 6.00 | C/C=C(\CCN1CCOCC1)c1scc(C(=O)NCc2c(C)cc(C)[nH]c2=O)c1C
